From patent US6066642A, “Dihydropyridine-, pyridine-, benzopyran-4-one- and triazoloquinazoline derivative, their preparation and their use as adenosine receptor antagonists” (priority 1998, dated 2000) come the findings set out here.

One assay deals with T1, A1 receptors (Rattus norvegicus, UniProt P25099).
T1 sequence (P25099 1-326): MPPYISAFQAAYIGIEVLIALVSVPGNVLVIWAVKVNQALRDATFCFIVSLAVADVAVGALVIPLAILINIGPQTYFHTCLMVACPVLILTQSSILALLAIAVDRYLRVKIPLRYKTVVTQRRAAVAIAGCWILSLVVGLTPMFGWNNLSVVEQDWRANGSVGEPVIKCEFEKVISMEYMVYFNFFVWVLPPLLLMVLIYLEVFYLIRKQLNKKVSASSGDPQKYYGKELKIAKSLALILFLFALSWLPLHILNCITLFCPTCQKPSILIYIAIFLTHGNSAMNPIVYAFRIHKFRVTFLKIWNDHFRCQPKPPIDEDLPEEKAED
Description: biochemical. It is filed as binding. Conditions: for inhibition at 100 µM: 10^-4 M; for Ki: rat brain membranes, read-out: Ki rA1; for greater affinity to A1 than A2a adenosine receptors: selectivity in words.

In another assay the target is T2, A2a receptors (Rattus norvegicus, UniProt P30543).
T2 construct: Displacement of specific [^3 H]; from tissue; host or cells: rat striatal membranes
In words: radioligand binding, displacement of specific [3H]CGS 21680 binding in rat striatal membranes. The settings on record: for inhibition at 100 µM: 10^-4 M; for Ki: [3H]CGS 21680, rat striatal membranes.

[1] abbreviates: Table 11, read-out: % inhibition rA1.
[2] abbreviates: Table 12, read-out: displacement of specific binding rA1.
[3] abbreviates: Table 12, read-out: % inhibition rA2A.
Setting [4] is: Table 12, read-out: % inhibition rA1.
[5] abbreviates: Table 12, read-out: displacement of specific binding rA2A.
Setting [6] is: Table 11, read-out: displacement of specific binding rA2A.

Where two headings read alike, the source gives them in different places.

T2 sequence (P30543 whole entry): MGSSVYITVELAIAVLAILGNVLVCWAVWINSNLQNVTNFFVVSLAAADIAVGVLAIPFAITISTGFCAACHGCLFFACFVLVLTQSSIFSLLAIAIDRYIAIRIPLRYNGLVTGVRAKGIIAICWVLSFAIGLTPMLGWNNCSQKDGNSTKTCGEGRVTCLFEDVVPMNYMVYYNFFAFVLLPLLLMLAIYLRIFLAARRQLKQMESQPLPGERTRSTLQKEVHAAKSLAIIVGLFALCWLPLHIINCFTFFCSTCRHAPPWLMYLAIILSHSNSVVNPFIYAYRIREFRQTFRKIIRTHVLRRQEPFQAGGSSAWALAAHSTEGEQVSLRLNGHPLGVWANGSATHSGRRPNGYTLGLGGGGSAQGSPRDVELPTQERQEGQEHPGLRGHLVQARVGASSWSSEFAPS
Description for A1 receptors: ^a Displacement of specific [^3 H] PIA binding in rat brain
percentage of specific binding displaced at 100 μM.
Description for A2a receptors: ^b Displacement of specific [^3 H]
or as a percentage of specific binding displaced at 100 μM.

In the case of `CCOC(=O)C1=C(c2ccccc2)NC(C)=C(C(=O)OCC2COC(C)(C)O2)C1C#Cc1ccccc1` (stereo not drawn) [Compound 209a], the inhibition at 100 µM at A1 receptors (Table 14, read-out: % inhibition rA1) is 32 ± 4%; at A2a receptors (Table 14, read-out: displacement of specific binding rA2A) it was under 10%.

As to `COc1cc(OC)c2c(=O)c(OC)c(-c3ccccc3)oc2c1` [Compound 2, 3,5,7-Trimethoxyflavone], the Ki on A1 receptors (Table 3, [3H]PIA) stood at 0.509 ± 0.049 µM; at A2a receptors (Table 3, read-out: Ki rA2a), 6.45 ± 1.48 µM.

With `CCOC(=O)C1=C(C)NC(c2ccccc2)=C(C(=O)OCc2ccccc2)C1/C=C/c1ccccc1` (stereo not drawn) [Compound 99], the inhibition at 100 µM is 35 ± 3% on A1 receptors (setting [1]) and 15% on A2a receptors (Table 11, read-out: % inhibition rA2A).

In the case of `CCOC(=O)C1=C(C)N(COC)C(c2ccccc2)=C(C(=O)OCC[Si](C)(C)C)C1C#Cc1ccccc1` (racemic) [Compound 137, 1-Methoxymethyl 3-ethyl 5-(2-trimethylsilyl)-ethyl 2-methyl-4-phenylethynyl-6-phenyl-1,4-(±)-dihydropyridine-3,5-dicarboxylate], the figures for the inhibition at 100 µM at A1 receptors (setting [2]) and on A2a receptors (setting [3]) were under 10% and 27 ± 4%, respectively.

With `C=CCOC(=O)C1=C(C)NC(c2ccccc2)=C(C(=O)OCC)C1/C=C/c1ccc([N+](=O)[O-])cc1` (stereo not drawn) [Compound 117], the inhibition at 100 µM at A1 receptors (setting [2]) is under 10%; at A2a receptors (setting [3]), 15%.

As for `O=c1c(O)c(-c2ccc(O)cc2O)oc2cc(O)cc(O)c12` [Compound 5a, 2',3,4',5,7-pentahydroxyflavone, reference compound], the Ki is 13.8 µM at A1 receptors (Table 3, [3H]PIA) and 17.3 µM on A2a receptors (Table 3, read-out: Ki rA2a).

As to `CCOC(=O)C1=C(C)NC(c2ccccc2)=C(C(=O)OCC)C1C#Cc1cccc(C)c1` (racemic) [Compound 120, 3,5-Diethyl 2-methyl-4-(3-methylphenylethynyl)-6-phenyl-1,4-(±)-dihydropyridine-3,5-dicarboxylate], the inhibition at 100 µM on A1 receptors (setting [4]) is 41%; at A2a receptors (setting [5]), under 10%.

`COC(=O)C1=C(C)NC(C)=C(C(=O)OCCN(C)Cc2ccccc2)C1c1cccc([N+](=O)[O-])c1` (stereo not drawn) [Compound 63, reference compound]: the Ki on A1 receptors (Table 9, [3H]PIA) is 19.6 µM; at A2a receptors (Table 9, read-out: Ki rA2A) it was 63.8 µM. Further, on A1 receptors, the “greater affinity to A1 than A2a adenosine receptors” value (“greater affinity” below) was “greater affinity to A1 adenosine receptors than A2a receptors”.

As to `CCOC(=O)C1=C(c2ccccc2)NC(C)=C(C(=O)OCc2ccccc2)C1C#Cc1ccccc1` (stereo not drawn) [Compound 107], the inhibition at 100 µM at A1 receptors (setting [1]) is 24 ± 4%; at A2a receptors (setting [6]), under 10%.

`COc1c2ccoc2cc2oc(C)cc(=O)c12` [Compound 17, 4-methoxy-7-methyl-5H-furo[3,2-g][1]-benzopyrano-5-one, reference compound]: the inhibition at 100 µM on A1 receptors (Table 5, read-out: % of specific binding displaced rA1) stood at 36 ± 3%. Further, the Ki on A2a receptors (Table 5, read-out: Ki rA2a) is 42.4 ± 11.9 µM.

For the compound `COC(=O)C1=C(C)NC(C)=C([N+](=O)[O-])C1c1ccccc1C(F)(F)F` (stereo not drawn) [Compound 69, reference compound], the “greater affinity” value on A1 receptors is reported as “greater affinity to A1 adenosine receptors than A2a receptors”.

Take `CCCOC(=O)C1=C(C)NC(c2ccccc2)=C(C(=O)OCc2ccccc2)C1C#Cc1ccccc1` (racemic) [Compound 124, 3-Propyl 5-benzyl 2-methyl-4-phenylethynyl-6-phenyl-1,4-(±)-dihydropyridine-3,5-dicarboxylate]: the values for the inhibition at 100 µM at A1 receptors (setting [4]) and on A2a receptors (setting [3]) were 27 ± 7% and 16%, respectively.

With `CCOCN1C(C)=C(C(=O)OCC)C(C#Cc2ccccc2)C(C(=O)OCC[Si](C)(C)C)=C1c1ccccc1` (racemic) [Compound 138, 1-Ethoxymethyl 3-ethyl 5-(2-trimethylsilyl)-ethyl 2-methyl-4-phenylethynyl-6-phenyl-1,4-(±)-dihydropyridine-3,5-dicarboxylate], the inhibition at 100 µM on A1 receptors (setting [4]) was 13 ± 3%; on A2a receptors (setting [3]), 19%.

Take `O=C1CC(c2ccccc2O)Oc2ccccc21` (stereo not drawn) [Compound 13, reference compound]: the Ki at A1 receptors (Table 4, [3H]PIA) was 2.64 ± 0.56 µM; on A2a receptors (Table 4, read-out: Ki rA2a), 17.6 ± 2.1 µM.

For `CCOC(=O)C1=C(c2ccccc2)NC(C)=C(C(=O)OCc2ccccc2)C1/C=C/c1ccc([N+](=O)[O-])cc1` (stereo not drawn) [Compound 106], the inhibition at 100 µM on A1 receptors (Table 11, read-out: displacement of specific binding rA1) is under 10%; on A2a receptors (setting [6]) it was under 10%.

Consider `CCOC(=O)C1=C(C)NC(c2ccccc2)=C(C(=O)OCc2ccc([N+](=O)[O-])cc2)C1C#Cc1ccccc1` (racemic) [Compound 122g], for which the inhibition at 100 µM at A1 receptors (setting [4]) was determined as 29 ± 2%.

Consider `CCOC(=O)C1=C(C)NC(c2ccccc2)=C(C(=O)OC(C)(C)C)C1C#Cc1ccccc1` (racemic) [Compound 127, 3-Ethyl 5-t-butyl 2-methyl-4-phenylethynyl-6-phenyl-1,4-(±)-dihydropyridine-3.5-dicarboxylate], for which the Ki on A1 receptors (Table 12, [3H]R-PIA) stood at 25.3 µM. Moreover, the inhibition at 100 µM on A2a receptors (setting [3]) came out at 27 ± 5%.

As for `CCOC(=O)C1=C(C)NC(c2ccccc2)=C(C(=O)OCCc2ccccc2)C1C#Cc1ccccc1` (racemic) [Compound 125, 3-Ethyl 5-phenylethyl 2-methyl-4-phenylethynyl-6-phenyl-1,4-(±)-dihydropyridine-3.5-dicarboxylate], the inhibition at 100 µM on A1 receptors (setting [2]) and on A2a receptors (setting [5]) was under 10% in each case.

For the compound `CCOC(=O)C1=C(C)NC(C)=C(C(=O)OC)C1c1ccc([N+](=O)[O-])cc1` (racemic) [Compound 67, 3-methyl-5-ethyl-2,6-dimethyl-4-(4-nitrophenyl)-1,4(R,S)-dihydropyridine-3,5-dicarboxylate], at A1 receptors (Table 9, read-out: % of specific binding displaced rA1), the inhibition at 100 µM came out at 37 ± 14%. For the same compound, at A2a receptors (Table 9, read-out: Ki rA2A), the Ki came to 35.6 µM.

For the compound `CCOC(=O)C1=C(C)NC(c2ccccc2)=C(C(=O)OCc2cccc(I)c2)C1C#Cc1ccccc1` (stereo not drawn) [Compound 122e], the inhibition at 100 µM at A1 receptors (setting [4]) came out at 14%; at A2a receptors (setting [3]), 19 ± 7%.

As to `CCOC(=O)C1=C(C)NC(c2ccccc2)=C(C(=O)OCc2cccc([N+](=O)[O-])c2)C1C#Cc1ccccc1` (racemic) [Compound 122f, 3-Ethyl 5-(3-nitrobenzyl)-4-phenylethynyl-6-phenyl-1,4(±)-dihydropyridine-3,5-dicarboxylate], the inhibition at 100 µM on A1 receptors (setting [4]) was 28 ± 2%; on A2a receptors (setting [5]) it was under 10%.

With `CCOC(=O)C1=C(C)NC(c2ccccc2)=C(C(=O)OCc2ccc(C(F)(F)F)cc2)C1C#Cc1ccccc1` (racemic) [Compound 122d], the inhibition at 100 µM was determined as 32 ± 3% at A1 receptors (setting [4]) and 15% on A2a receptors (setting [3]).

For `COC(=O)C1=C(C)NC(C)=C([N+](=O)[O-])C1c1ccccc1C(F)(F)F` (stereo not drawn) [Compound 70, reference compound], the “greater affinity” value on A1 receptors is given as “greater affinity to A1 adenosine receptors than A2a receptors”.

`CCOC(=O)C1=C(C)NC(c2ccccc2)=C(C(=O)OCc2ccccc2)C1/C=C/c1ccc([N+](=O)[O-])cc1` (stereo not drawn) [Compound 100]: the inhibition at 100 µM at A1 receptors (setting [1]) was 33%; on A2a receptors (setting [6]) it was under 10%.

Consider `CCOC(=O)C1=C(C)NC(c2ccccc2)=C(C(=O)OCc2ccccc2)C1C#Cc1ccccc1` (stereo not drawn) [Compound 121], for which the inhibition at 100 µM at A1 receptors (setting [4]) was determined as 25 ± 4%.

Turning to `O=c1cc(-c2ccccc2)oc2ccccc12` [Compound 11a, flavone, reference compound], the Ki worked out at 3.28 ± 0.92 µM on A1 receptors (Table 3, [3H]PIA) and 3.45 ± 1.16 µM on A2a receptors (Table 3, read-out: Ki rA2a).

As for `CCOC(=O)C1=C(C)NC(c2ccccc2)=C(C(=O)OCc2ccc(C)cc2)C1C#Cc1ccccc1` (racemic) [Compound 122c], the inhibition at 100 µM on A1 receptors (setting [2]) is under 10%; at A2a receptors (setting [3]), 17 ± 3%.

Regarding `CCCC1C(C(=O)OC)=C(C)NC(C)=C1C(=O)OCC` (racemic) [Compound 57, 3-methyl,5-ethyl 2,6-dimethyl-4-propyl-1,4(R,S)-dihydropyridine-3,5-dicarboxylate], the Ki on A2a receptors (Table 9, read-out: Ki rA2A) worked out at 11.5 µM.

Consider `CCCn1c(=O)n2nc(-c3ccco3)nc2c2cc(Cl)ccc21` [Compound 159, 9-Chloro-2-(2-furyl)[1,2,4]triazolo[1,5-c]quinazolin-6-propyl-5-one], for which the Ki at A1 receptors (Table 15, [3H]PIA) came out at 2 µM.

Take `O=C1CC(c2ccccc2)Oc2ccccc21` (stereo not drawn) [Compound 12, flavanone, reference compound]: the Ki on A1 receptors (Table 4, [3H]PIA) was 32 ± 4.8 µM.

As for `CCOC(=O)C1=C(C)NC(c2ccccc2)=C(C(=O)OCC)C1c1ccccn1` (racemic) [Compound 111, 3,5-Diethyl 2-methyl-4-(2-pyridyl)-6-phenyl-1,4-(±)-dihydropridine-3,5-dicarboxylate], at A2a receptors (setting [3]), the inhibition at 100 µM was determined as 25%.

As to `CCOC(=O)C1=C(C)NC(c2ccccc2)=C(C(=O)OCC)C1c1cc2ccccc2o1` (racemic) [Compound 116, 3,5-Diethyl 2-methyl-4-(2-benzofuryl)-6-phenyl-1,4-(±)-dihydropridine-3,5-dicarboxylate], the inhibition at 100 µM on A2a receptors (setting [5]) was under 10%.

On to `O=c1c(O)c(-c2ccc(O)c(O)c2)oc2cc(O)cc(O)c12` [Compound 37, quercetin, reference compound], for which the Ki at A2a receptors (Table 6, read-out: K2 (rA2a)) worked out at 6.99 ± 0.89 µM.
